Columns and labels:
[1] = tested on: ROS produced by human blood phagocytes; test: Oxidative burst, luminol-enhanced chemiluminescence in whole blood; type: cell-based; settings: serum opsonized zymosan
Method: Formation of the reactive oxygen species (ROS) in whole blood, during the oxidative burst was measured by the luminol-enhanced chemiluminescence assay. In brief, three concentrations of each compound (1.0, 10 and 100 μg/mL) were prepared in 25 μL of Hank's Balanced salt solution containing calcium chloride and magnesium sulfate (HBSS^++) in a half area 96-well white flat-bottomed plate (Sigma Aldrich, Steinheim, Germany) in a final volume of 100 μL. Then 25 μL of whole blood diluted 1:50 in suspension of HBSS^++ was added.
Positive and negative controls and blank wells were included. Cells and compounds were incubated for 30 minutes at 37° C., then 25 μL luminol [3-aminophthalhydrazide] (Research Organics Cleveland, Ohio, USA), were added into each well followed by 25 μL of serum opsonized zymosan (Saccharomyces cerevisiae origin) purchased from Fluka, Buchs (Switzerland) was added except for negative and blank wells. The ROS chemiluminescence kinetic was monitored with a luminometer from Labsystems (Helsinki, Finland), for 50 minutes in the repeated scan mode. Peak and total integral chemiluminescence readings were expressed in the relative light unit.

[2] = tested on: NO produced by mouse macrophages J774.2 cell line; test: Nitrite accumulation in LPS-stimulated J774.2 macrophages (Griess method); type: cell-based; settings: LPS-stimulated J774.2, 24 hours
Method: The mouse macrophage cell line J774.2 obtained from ECACC, Salisbury, Wiltshire (UK) was cultured in T75 flasks in complete DMEM containing 10% fetal bovine serum and supplemented with 1% streptomycin/penicillin. Flasks were kept at 37° C. in the atmosphere of humidified air containing 5% CO2. Cell were then seeded in 24 well (10^6 cells/mL) and nitric oxide synthase (NOS-2) in the macrophages was induced by addition of 20 μg/mL E. coli lipopolysaccharide (DIFCO Laboratories, Michigan, USA). The test compounds were added at a concentration of 25 μg/mL soon after LPS stimulation and incubated at 37° C. in 5% CO2. Cell culture supernatant was collected after 24 hours. Nitrite accumulation in J774.2 cell culture supernatant was measured using the Griess method, where 50 μL of 1% sulphanilamide in 2.5% phosphoric acid, followed by 50 μL of 0.1% naphtyl-ethylene diamine dihydrochloride in 2.5% phosphoric acid were added to 50 μL culture medium. After 10 minutes of incubation at room temperature the absorbance at 550 nm was read. Micromolar concentrations of nitrite were calculated from standard curve constructed with sodium nitrite a reference compound. The results were expressed as means±SD of duplicate readings.

T-cell proliferation = T-cell proliferation assay (PHA-stimulated PBMNCs, 3H-thymidine incorporation); type: cell-based, human; set-up: unit not given here; settings: PHA 5 μg/mL stimulated PBMNCs
Method: The diluted blood was then layered onto lymphocyte separation medium (MP Biomedicals, Inc., Ohio, USA) and centrifuged at 400 g for 20 min at 25° C. […] Plates were then incubated at 37° C. in a humidified atmosphere of 5% CO2 in air for 72 hours. To each well, 0.5 μCi [methyl ^3H]-thymidine (Amersham Place Little Chalfont, Buckinghamshire, UK) was added for an additional 18 hours. Cells were harvested using a cell harvester (Inotech, Dottikon, Switzerland), and incorporation and level of radioactivity was measured by a liquid scintillation counter (Beckman coulter, LS 6500, Fullerton, Calif., USA).

[3] = tested on: 3T3 NIH mouse embryo fibroblast cell line
Method: The 3T3-NIH cells were suspended in Dulbecco's Modified Eagle's Medium (DMEM) formulated with 10% FBS. Using flat bottomed plates, cells were plated at a concentration of 6×10^4 cells/mL and incubated for 24 h at 37° C. and 5% CO2 environment. […] Following exposure to each compound, cell viability was assessed by using 0.5 mg/mL of MTT {3-(4,5-dimethylthiazol-2-yl)-2,5-diphenyltetrazolium bromide for 4 h followed by the removal of supernatant and addition of DMSO to solubilize the formazan complex. The plates were read at 540 nm after one minute shaking and readings were processed using MS Excel software. The results were expressed as means±SD of triplicate readings.

IL-2 production = IL-2 production by PHA/PMA stimulated PBMCs (ELISA); type: cell-based, human; settings: experimental IL-2 IC50 listed in Table 3
Method: The PBMCs were cultured in a 96-well flat-bottomed plate (1.0×10^5 cell/well) in the presence or absence of three concentrations of test compounds (1.0, 5.0 and 20 μg/mL), and phytohemagglutinin (PHA) phorbol myristate acetate (PMA) in a final concentration of 5 ng/mL and 20 ng/mL, respectively. After an incubation period of 18 h at 37° C. in a humidified atmosphere of 5% CO2 in air, the supernatant was collected for IL-2 determination. Interleukin-2 levels were measured by using enzyme-linked immunosorbent assay (ELISA) development kit (R&D systems, Minneapolis, Minn., USA). The assay was performed according to the manufacturer's instructions. Briefly, a 96-well flat-bottomed ELISA plate was coated with 4.0 μg/mL mouse anti-human IL-2, in PBS, pH 7.4. Then, re-combinant human IL-2 standards and culture supernatant samples were added and incubated for 2 h followed by washing steps and then the addition of biotinylated goat anti-human IL-2. After an incubation period of 2 h at room temperature, the plates were again washed and streptavidin conjugated horse raddish peroxidase was added and incubated for additional 20 min at room temperature. After the final washes, an enzyme substrate solution of H2O2 and tetra methyl benzidine (1:1 v/v) was added and the color was allowed to develop at room temperature in the dark. The plates were then read at 450 nm in a plate reader (DIAReader GMBH, Wr. Neudorf, Austria). The results were analyzed using Microsoft Excel.

COc1cccc(-c2nc3ccccc3s2)c1O [Compound 2]
IC50 (μg/mL) for phagocytes ROS [1]: 1.9 ± 0.6 µg/mL | % of NO inhibited by 25 μg/mL of compound [2]: 28.9 ± 1.3% | IC50 T-cell proliferation (T-cell proliferation): 2.97±0.3 | Cytotoxicity IC50 [3]: >25 µg/mL | IC50 (IL-2 production): <1 µg/mL

Source: patent US20140378515A1, “IMMUNOSUPPRESSIVE COMPOUNDS” (priority 2013, published 2014)
